Assay results as given in US20260027126A1, “COMBINATION THERAPY FOR TREATING CANCERS” (GEISTLICH PHARMA AG, priority 2022, published 2026).
“Also recorded” adds a separate entry of the source.

Key:
[1] = tested on: mTOR; assay: in vivo pharmacodynamic experiment, OVCAR8 mouse model: mTOR; settings: dose of 500 mg/kg
Method: (§1) In vivo model of ovarian cancer: Pharmacodynamic study and therapeutic experiment using OVCAR8 ovarian cancer model were performed.
(§2) FIGS. 17A-17B show pharmacodynamics studies of GP-2250.

[2] = tested on: high-grade ovarian cancer cells (OVCAR8) labeled with luciferase gene; assay: in vivo therapy experiment, orthotopic OVCAR8-L ovarian cancer mouse model; design: species or system mice; settings: GP-2250 500 mg/kg 3 times per week i.p., PARP inhibitor 50 mg/kg 5 times per week i.p., take down day 49
Method: FIG. 1 schematically illustrates the experimental design for in vivo testing of the GP-2250 and PARP inhibitors on OVCAR8-L mice. The experiment includes testing: vehicle control, Ringer's solution (10 mice, 200 μl, i.p.); 2) GP-2250 (10 mice, 500 mg/kg. 3 times per week, i.p.); 3) Olaparib (10 mice, 50 mg/kg, 5 times per week, i.p.); 4) the combination of GP-2250 and Olaparib; 5) Niraparib (10 mice, 50 mg/kg, 5 times per week, i.p.); 6) the combination of GP-2250 and Niraparib (10 mice): 7) Rucparib (10 mice, 50 mg/kg, 5 times per week, i.p.); 8) the combination of GP-2250 and Rucaparib . . .
Tumorigenicity of OVCAR8-L was determined using IVIS imaging. IVIS imaging following OCVAR8-L injection. 1×10^6 cells were injected through i.p., and then tumorigenicity was measured. All mice were injected with high-grade ovarian cancer cells (OVCAR8) labeled with luciferase gene by i.p. route.
as §1

[3] = tested on: AKT; assay: Reverse Phase Protein Array / Western blotting of ovarian cancer cells: AKT; format: cell-based, Human
Method: (§3) Human Ovarian cancer cell lines: A2780, Coav3, HeyA8, HeyA8-MDR, Kuramochi, OVCAR3, OVCAR5, OVCAR8, and SKOV3 were obtained and used in studies.
(§4) In vitro assays: Cell viability assay, Western blotting, Colony formation assay, Reverse-phase protein array, and Ultra-high resolution mass spectrometry analysis were performed.

[4] = tested on: mTOR; assay: Reverse Phase Protein Array / Western blotting of ovarian cancer cells: mTOR; format: cell-based, Human
Method: as §3, §4

[5] = tested on: AKT; assay: in vivo pharmacodynamic experiment, OVCAR8 mouse model: AKT; settings: dose of 500 mg/kg
Method: as §1, §2

[6] = target: T1, hexokinase2 (Homo sapiens, UniProt P52789); assay: hexokinase2 activity and expression (ultra-high resolution mass spectrometry analysis, FIG. 16); format: cell-based; settings: GP-2250 treatment of cancer cells
T1 construct: endogenous in cells; host or cells: human ovarian cancer cell lines
T1 sequence (P52789 1-917): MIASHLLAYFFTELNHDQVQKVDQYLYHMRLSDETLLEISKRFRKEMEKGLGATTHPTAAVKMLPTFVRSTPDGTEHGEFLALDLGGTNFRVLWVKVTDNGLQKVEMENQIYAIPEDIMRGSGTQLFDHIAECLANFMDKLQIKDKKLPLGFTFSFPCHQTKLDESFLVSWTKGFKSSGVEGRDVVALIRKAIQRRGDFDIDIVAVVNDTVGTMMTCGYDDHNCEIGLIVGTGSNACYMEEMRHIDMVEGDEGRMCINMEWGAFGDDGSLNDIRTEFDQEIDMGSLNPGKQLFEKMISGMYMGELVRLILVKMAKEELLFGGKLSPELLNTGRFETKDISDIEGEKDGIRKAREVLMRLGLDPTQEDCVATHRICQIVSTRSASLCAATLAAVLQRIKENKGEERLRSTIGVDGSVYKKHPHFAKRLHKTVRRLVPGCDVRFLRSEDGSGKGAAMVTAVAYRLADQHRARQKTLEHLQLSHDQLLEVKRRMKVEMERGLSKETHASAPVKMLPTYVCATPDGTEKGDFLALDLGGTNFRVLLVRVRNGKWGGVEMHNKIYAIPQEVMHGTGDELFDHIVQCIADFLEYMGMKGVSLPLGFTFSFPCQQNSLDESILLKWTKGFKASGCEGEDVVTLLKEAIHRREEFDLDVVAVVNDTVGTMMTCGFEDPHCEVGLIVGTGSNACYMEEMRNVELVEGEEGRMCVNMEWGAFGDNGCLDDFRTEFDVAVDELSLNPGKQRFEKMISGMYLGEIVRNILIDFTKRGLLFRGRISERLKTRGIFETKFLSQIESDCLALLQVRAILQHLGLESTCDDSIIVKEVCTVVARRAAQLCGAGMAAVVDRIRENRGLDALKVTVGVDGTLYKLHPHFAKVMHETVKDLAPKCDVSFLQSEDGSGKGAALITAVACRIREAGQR
Method: as §3, §4

[7] = tested on: HIF-1α; assay: Reverse Phase Protein Array / Western blotting of ovarian cancer cells: HIF-1α; format: cell-based, Human
Method: as §3, §4

[8] = tested on: cancer cells; assay: glycolysis and ATP synthesis in cancer cells; format: cell-based, Human
Method: as §4

[9] = tested on: ovarian cancer cell lines; assay: cytotoxic effect / cell viability assay in ovarian cancer cell lines; format: cell-based, Human
Method: as §3, §4, §1

[10] = solubility; format: physicochemical
[11] = Western blot, ovarian cancer cells treated for 24 hours

**Q.** What does the source list for O=S1(=O)CCOCN1 [GP-2250]?
**A.** downregulation of mTOR activation and expression [1]: most effective; tumor nodules (number) [2]: 2.9±0.48; tumor weight [2]: 2.9 ± 0.48 g; AKT activation and expression level ([3]; RPPA analyses): inhibited; AKT expression [3, 11]: inhibits; mTOR activation and expression level ([4]; RPPA analyses): inhibited; mTOR expression [4, 11]: inhibits; downregulation of AKT activation and expression [5]: most effective; hexokinase2 activity and expression [6]: inhibition; also recorded: significantly reduced; hypoxia-inducible factor-1a activation and expression level ([7]; RPPA analyses): inhibited; HIF-1α expression [7, 11]: inhibits; ATP synthesis [8]: reduced; glycolysis [8]: decreases; also recorded: reduced; cytotoxic effect: vulnerability of HRD versus HRP ovarian cancer cells ([9]; HRD cells (Kuramochi, OVCAR4, OVCAR8) compared with HRP cells (A2780, OVCAR5), both vulnerable): more vulnerable; apoptosis ([9]; ovarian cancer cells): increased apoptosis; proliferation ([9]; ovarian cancer cells): reduced proliferation

**Q.** Which “tumor nodules (number)” value [2] does the source give for NC(=O)c1cccc2cn(-c3ccc([C@@H]4CCCNC4)cc3)nc12 [niraparib] here?
**A.** 3.4±0.44

**Q.** What about the tumor weight [2] of the same compound?
**A.** 0.38 ± 0.05 g

**Q.** What does the source list for O=C(c1cc(Cc2n[nH]c(=O)c3ccccc23)ccc1F)N1CCN(C(=O)C2CC2)CC1 [olaparib]?
**A.** tumor nodules (number) [2]: 3.3±0.64; tumor weight [2]: 0.53 ± 0.09 g

**Q.** With CNCc1ccc(-c2[nH]c3cc(F)cc4c3c2CCNC4=O)cc1 [rucaparib] as the compound, how does the “tumor nodules (number)” value [2] read?
**A.** 4.85±0.79

**Q.** What about the tumor weight [2] of the same compound?
**A.** 0.52 ± 0.1 g

**Q.** And the solubility [10]?
**A.** relatively poor solubility
